Measurements: the supplement of paper PMC10307832

Assays:
Assay in all cases: relative viability (nuclei count vs DMSO), 5 days (fraction); higher = more cells survive
A-427 = test system: A-427
Summary of the method: (§1)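 Relative viability was taken as the ratio of nuclei in treated wells to nuclei in vehicle wells. Lung cancer cell lines in 1536-well plates received compounds by pin tool one day after seeding, either one drug alone or a fixed anchor-drug dose plus five library-drug doses (not always all listed) in √10 steps. Nuclei were counted on 4× images after 5 days of treatment, and values are medians of duplicate plates.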

CAL-12T = test system: CAL-12T
Summary of the method: as §1

COR-L 105 = test system: COR-L 105
Summary of the method: as §1

EMC-BAC-2 = test system: EMC-BAC-2
Summary of the method: as §1

HARA = test system: HARA
Summary of the method: as §1

HCC-366 = test system: HCC-366
Summary of the method: as §1

HCC-827 = test system: HCC-827
Summary of the method: as §1

HOP-62 = test system: HOP-62
Summary of the method: as §1

LCLC-103H = test system: LCLC-103H
Summary of the method: as §1

NCI-H1395 = test system: NCI-H1395
Summary of the method: as §1

NCI-H1437 = test system: NCI-H1437
Summary of the method: as §1

NCI-H1755 = test system: NCI-H1755
Summary of the method: as §1

NCI-H1792 = test system: NCI-H1792
Summary of the method: as §1

NCI-H1915 = test system: NCI-H1915
Summary of the method: as §1

NCI-H2009 = test system: NCI-H2009
Summary of the method: as §1

NCI-H2228 = test system: NCI-H2228
Summary of the method: as §1

NCI-H23 = test system: NCI-H23
Summary of the method: as §1

NCI-H460 = test system: NCI-H460
Summary of the method: as §1

NCI-H522 = test system: NCI-H522
Summary of the method: as §1

NCI-H727 = test system: NCI-H727
Summary of the method: as §1

SK-LU-1 = test system: SK-LU-1
Summary of the method: as §1

SW 1573 = test system: SW 1573
Summary of the method: as §1

CC(=O)O[C@@]12CO[C@@H]1C[C@H](O)[C@@]1(C)C(=O)[C@H](O)C3=C(C)[C@@H](OC(=O)[C@H](O)[C@@H](NC(=O)OC(C)(C)C)c4ccccc4)C[C@@](O)([C@@H](OC(=O)c4ccccc4)[C@H]21)C3(C)C [Docetaxel] + CC(=O)c1c(C)c2cnc(Nc3ccc(N4CCNCC4)cn3)nc2n(C2CCCC2)c1=O [Palbociclib] (partner 0.5 µM)
relative viability (A-427; first compound 0.0002 µM): 0.522
relative viability (A-427; first compound 0.000632 µM): 0.505
relative viability (A-427; first compound 0.002 µM): 0.507
relative viability (A-427; first compound 0.006325 µM): 0.372
relative viability (A-427; first compound 0.02 µM): 0.241
relative viability (CAL-12T; first compound 0.0002 µM): 0.251
relative viability (CAL-12T; first compound 0.000632 µM): 0.282
relative viability (CAL-12T; first compound 0.002 µM): 0.192
relative viability (CAL-12T; first compound 0.006325 µM): 0.198
relative viability (CAL-12T; first compound 0.02 µM): 0.105
relative viability (COR-L 105; first compound 0.0002 µM): 0.393
relative viability (COR-L 105; first compound 0.000632 µM): 0.403
relative viability (COR-L 105; first compound 0.002 µM): 0.368
relative viability (COR-L 105; first compound 0.006325 µM): 0.353
relative viability (COR-L 105; first compound 0.02 µM): 0.338
relative viability (EMC-BAC-2; first compound 0.0002 µM): 0.511
relative viability (EMC-BAC-2; first compound 0.000632 µM): 0.536
relative viability (EMC-BAC-2; first compound 0.002 µM): 0.441
relative viability (EMC-BAC-2; first compound 0.006325 µM): 0.363
relative viability (EMC-BAC-2; first compound 0.02 µM): 0.31
relative viability (HARA; first compound 0.0002 µM): 0.222
relative viability (HARA; first compound 0.000632 µM): 0.189
relative viability (HARA; first compound 0.002 µM): 0.168
relative viability (HARA; first compound 0.006325 µM): 0.128
relative viability (HARA; first compound 0.02 µM): 0.0982
relative viability (HCC-366; first compound 0.0002 µM): 0.327
relative viability (HCC-366; first compound 0.000632 µM): 0.0952
relative viability (HCC-366; first compound 0.002 µM): 0.066
relative viability (HCC-366; first compound 0.006325 µM): 0.0347
relative viability (HCC-366; first compound 0.02 µM): 0.0219
relative viability (HCC-827; first compound 0.0002 µM): 0.508
relative viability (HCC-827; first compound 0.000632 µM): 0.446
relative viability (HCC-827; first compound 0.002 µM): 0.375
relative viability (HCC-827; first compound 0.006325 µM): 0.213
relative viability (HCC-827; first compound 0.02 µM): 0.197
relative viability (HOP-62; first compound 0.0002 µM): 0.461
relative viability (HOP-62; first compound 0.000632 µM): 0.353
relative viability (HOP-62; first compound 0.002 µM): 0.284
relative viability (HOP-62; first compound 0.02 µM): 0.156
relative viability (LCLC-103H; first compound 0.0002 µM): 0.496
relative viability (LCLC-103H; first compound 0.000632 µM): 0.532
relative viability (LCLC-103H; first compound 0.002 µM): 0.5
relative viability (LCLC-103H; first compound 0.006325 µM): 0.598
relative viability (LCLC-103H; first compound 0.02 µM): 0.57
relative viability (NCI-H1395; first compound 0.0002 µM): 0.589
relative viability (NCI-H1395; first compound 0.000632 µM): 0.638
relative viability (NCI-H1395; first compound 0.002 µM): 0.5
relative viability (NCI-H1395; first compound 0.006325 µM): 0.42
relative viability (NCI-H1395; first compound 0.02 µM): 0.274
relative viability (NCI-H1437; first compound 0.0002 µM): 0.261
relative viability (NCI-H1437; first compound 0.000632 µM): 0.33
relative viability (NCI-H1437; first compound 0.002 µM): 0.297
relative viability (NCI-H1437; first compound 0.02 µM): 0.156
relative viability (NCI-H1755; first compound 0.0002 µM): 0.466
relative viability (NCI-H1755; first compound 0.000632 µM): 0.489
relative viability (NCI-H1755; first compound 0.002 µM): 0.5
relative viability (NCI-H1755; first compound 0.006325 µM): 0.41
relative viability (NCI-H1755; first compound 0.02 µM): 0.406
relative viability (NCI-H1792; first compound 0.0002 µM): 0.651
relative viability (NCI-H1792; first compound 0.000632 µM): 0.639
relative viability (NCI-H1792; first compound 0.002 µM): 0.543
relative viability (NCI-H1792; first compound 0.006325 µM): 0.367
relative viability (NCI-H1792; first compound 0.02 µM): 0.213
relative viability (NCI-H1915; first compound 0.0002 µM): 0.506
relative viability (NCI-H1915; first compound 0.000632 µM): 0.464
relative viability (NCI-H1915; first compound 0.002 µM): 0.219
relative viability (NCI-H1915; first compound 0.006325 µM): 0.149
relative viability (NCI-H1915; first compound 0.02 µM): 0.102
relative viability (NCI-H2009; first compound 0.0002 µM): 0.135
relative viability (NCI-H2009; first compound 0.000632 µM): 0.234
relative viability (NCI-H2009; first compound 0.002 µM): 0.192
relative viability (NCI-H2009; first compound 0.006325 µM): 0.202
relative viability (NCI-H2009; first compound 0.02 µM): 0.127
relative viability (NCI-H2228; first compound 0.0002 µM): 0.52
relative viability (NCI-H2228; first compound 0.000632 µM): 0.251
relative viability (NCI-H2228; first compound 0.002 µM): 0.195
relative viability (NCI-H2228; first compound 0.006325 µM): 0.137
relative viability (NCI-H2228; first compound 0.02 µM): 0.129
relative viability (NCI-H23; first compound 0.0002 µM): 0.562
relative viability (NCI-H23; first compound 0.000632 µM): 0.523
relative viability (NCI-H23; first compound 0.002 µM): 0.348
relative viability (NCI-H23; first compound 0.006325 µM): 0.168
relative viability (NCI-H23; first compound 0.02 µM): 0.163
relative viability (NCI-H460; first compound 0.0002 µM): 0.194
relative viability (NCI-H460; first compound 0.000632 µM): 0.0505
relative viability (NCI-H460; first compound 0.002 µM): 0.0387
relative viability (NCI-H460; first compound 0.006325 µM): 0.01
relative viability (NCI-H460; first compound 0.02 µM): 0.0125
relative viability (NCI-H522; first compound 0.0002 µM): 1.11
relative viability (NCI-H522; first compound 0.000632 µM): 0.795
relative viability (NCI-H522; first compound 0.002 µM): 0.758
relative viability (NCI-H522; first compound 0.006325 µM): 0.565
relative viability (NCI-H522; first compound 0.02 µM): 0.311
relative viability (NCI-H727; first compound 0.0002 µM): 0.618
relative viability (NCI-H727; first compound 0.000632 µM): 0.64
relative viability (NCI-H727; first compound 0.002 µM): 0.629
relative viability (NCI-H727; first compound 0.006325 µM): 0.538
relative viability (NCI-H727; first compound 0.02 µM): 0.446
relative viability (SK-LU-1; first compound 0.0002 µM): 0.358
relative viability (SK-LU-1; first compound 0.000632 µM): 0.315
relative viability (SK-LU-1; first compound 0.002 µM): 0.409
relative viability (SK-LU-1; first compound 0.006325 µM): 0.265
relative viability (SK-LU-1; first compound 0.02 µM): 0.19
relative viability (SW 1573; first compound 0.0002 µM): 0.316
relative viability (SW 1573; first compound 0.000632 µM): 0.23
relative viability (SW 1573; first compound 0.002 µM): 0.155
relative viability (SW 1573; first compound 0.006325 µM): 0.196
relative viability (SW 1573; first compound 0.02 µM): 0.0993
